Test results from US12258367B2, “Glucoside derivative that acts as SGLT1 inhibitor and application thereof” (MEDSHINE DISCOVERY INC., priority 2019, dated 2025).
Marks after values point to notes of the source that are not given here.

How the values were obtained:
Human-SGLT1 = target: T1, Human-SGLT1 (Homo sapiens, UniProt P13866); assay: SGLT1 glucose transport assay ([14C]-methyl α-D-glucopyranoside uptake); format: cell-based; details: cells stably expressing Human-SGLT1, 37° C. for 2 hours
T1 sequence (P13866 1-664): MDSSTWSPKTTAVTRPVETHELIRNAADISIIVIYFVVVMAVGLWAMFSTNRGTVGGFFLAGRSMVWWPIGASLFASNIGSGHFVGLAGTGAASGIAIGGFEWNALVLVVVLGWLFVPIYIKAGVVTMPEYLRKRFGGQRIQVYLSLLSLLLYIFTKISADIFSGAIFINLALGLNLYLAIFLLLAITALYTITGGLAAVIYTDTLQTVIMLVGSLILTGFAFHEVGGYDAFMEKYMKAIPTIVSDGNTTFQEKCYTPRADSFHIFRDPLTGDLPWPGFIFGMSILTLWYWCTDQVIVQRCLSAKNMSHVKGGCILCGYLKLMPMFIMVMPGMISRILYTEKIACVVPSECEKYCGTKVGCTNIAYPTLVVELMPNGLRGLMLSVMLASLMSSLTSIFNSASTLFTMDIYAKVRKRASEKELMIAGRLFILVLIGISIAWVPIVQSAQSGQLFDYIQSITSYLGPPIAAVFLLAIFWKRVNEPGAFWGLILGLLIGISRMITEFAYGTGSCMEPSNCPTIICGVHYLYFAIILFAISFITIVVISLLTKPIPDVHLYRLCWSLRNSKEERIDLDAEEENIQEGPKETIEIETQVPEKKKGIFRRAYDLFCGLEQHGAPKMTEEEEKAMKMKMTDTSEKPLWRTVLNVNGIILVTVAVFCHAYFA
Protocol: The effect of the compounds on the glucose transport activity of the SGLT1 transporter was detected by measuring the amount of [^14C]-labeled glucose entering cells highly expressing Human-SGLT1.
The cells stably expressing Human-SGLT1 used in the assay were constructed by Shanghai WuXi AppTec. The SGLT1 cells were plated on a Cytostar-T (PerkinElmer) 96-well cell culture plate and cultured at 5% CO2, 37° C. overnight.

[1] = In vivo DMPK study in rats; details: male SD rats; for clearance / half-life / Vd: iv, 1 mg/kg intravenously; for clearance: read-out: Cl (clearance rate); for half-life: read-out: T1/2 (half-life) (converted); for Vd: read-out: VdSS (distribution volume)
Source text: Purpose of the assay: Male SD rats were used as test animals to determine the blood concentration of the compound after a single administration and evaluate the pharmacokinetic behavior.
Procedure of the assay: 4 healthy adult male SD rats were selected, 2 rats in the intravenous injection group, and 2 rats in the oral group. The test compound was mixed with an appropriate amount of vehicle (10% NMP/10% solutol/80% water) for the intravenous injection group, vortexed, and sonicated to prepare a clear solution of 0.5 mg/mL. The clear solution was filtered by a microporous membrane for use. The vehicle for the oral group was 10% NMP/10% solutol/80% water. The test compound was mixed with the vehicle, and then the mixture was vortexed and sonicated to prepare a clear solution of 1 mg/mL. Rats were administered 1 mg/kg intravenously or 10 mg/kg orally, and then whole blood was collected for a certain period. Plasma was prepared. The drug concentration was analyzed by LC-MS/MS method, and the pharmacokinetic parameters were calculated by Phoenix WinNonlin software (Pharsight, USA).

Human-SGLT2 = target: T2, Human-SGLT2 (Homo sapiens, UniProt P31639); assay: SGLT2 glucose transport assay ([14C]-methyl α-D-glucopyranoside uptake); format: cell-based; details: cells stably expressing Human-SGLT2, 37° C. for 2 hours
T2 sequence (P31639 1-672): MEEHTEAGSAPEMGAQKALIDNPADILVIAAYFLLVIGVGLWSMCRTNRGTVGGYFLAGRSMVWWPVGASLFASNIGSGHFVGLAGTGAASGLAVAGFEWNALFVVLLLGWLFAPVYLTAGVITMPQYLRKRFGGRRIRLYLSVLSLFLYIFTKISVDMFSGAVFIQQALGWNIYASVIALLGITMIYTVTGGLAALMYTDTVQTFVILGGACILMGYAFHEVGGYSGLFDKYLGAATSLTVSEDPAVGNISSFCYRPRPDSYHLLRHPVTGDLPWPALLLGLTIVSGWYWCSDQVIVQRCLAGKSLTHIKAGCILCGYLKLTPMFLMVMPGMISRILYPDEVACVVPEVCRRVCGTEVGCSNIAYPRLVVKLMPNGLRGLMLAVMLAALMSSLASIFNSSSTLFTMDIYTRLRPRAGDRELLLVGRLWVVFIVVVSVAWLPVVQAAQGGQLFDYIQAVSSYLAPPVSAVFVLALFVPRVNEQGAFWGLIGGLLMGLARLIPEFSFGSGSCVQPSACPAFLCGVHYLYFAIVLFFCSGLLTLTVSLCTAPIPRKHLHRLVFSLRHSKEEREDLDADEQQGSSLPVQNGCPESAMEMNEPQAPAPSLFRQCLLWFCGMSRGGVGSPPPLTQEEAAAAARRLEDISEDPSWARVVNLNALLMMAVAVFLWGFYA
Protocol: The effect of the compound on the glucose transport activity of the SGLT2 transporter was detected by measuring the amount of [^14C]-labeled glucose entering cells highly expressing Human-SGLT2.
The cells stably expressing Human-SGLT2 used in the assay were constructed by Shanghai WuXi AppTec. The SGLT2 cells were plated on a 96-well cell culture plate (Greiner) and cultured at 5% CO2, 37° C. overnight.

SD rats = assay: In vivo efficacy study of oral glucose tolerance in rats (OGTT); details: 5 mg/kg single gavage, then 50% glucose 2 g/kg, vehicle control 1063.4
Protocol: After the animals were fasted for 6 hours, they were administered WXD003 or vehicle according to Table 6, and then immediately administered 50% glucose solution (2 g/kg, 4 ml/kg).
The time for sugar administration was recorded as 0 point. The blood glucose of the animals was detected at 0 minute before sugar administration, and at 15, 30, 60, 90, 120 minutes after sugar administration, respectively. A curve of glucose tolerance was drawn based on the data of time versus blood glucose, and the area under curve (AUC) was calculated.
All values were expressed as average values. Statistical analysis was evaluated using Graphpad Prism 6 one-way analysis of variance and Tukey's multiple comparison test. A p value of less than 0.05 was considered statistically significant.

C57BL/6J male mice [2] = assay: In vivo efficacy study in diabetic mouse model induced by STZ combined with high-sugar and high-fat diet; design: species or system C57BL/6J mice; details: for Glycosylated hemoglobin after 6 hours of fasting / Blood glucose after 6 hours of fasting: HFHS
Source text: 7 week-old C57BL/6J male mice, purchased from Jiangsu GemPharmatech Co., Ltd.
1) After the animals adapted to the environment, all mice were divided into two groups according to body weight, fed according to the scheme in Table 8, and injected with vehicle and streptozotocin (STZ) for modeling;
2) According to the random blood glucose test results of the model group, mice with random blood glucose greater than 11 mmol/L were enrolled in the group to continue the administration assay;
3) The mice in the model group that meet the criteria for enrollment were divided into 3 groups, 5 in the normal group, and 10 in each model administration group. The mice were administered according to the administration schedule in Table 9;
4) After starting the administration, the level of change in animal weight was monitored every day, and the blood glucose and glycosylated hemoglobin of the mice in each group after 6 hours of fasting were detected after 4 weeks and 7 weeks of administration, respectively;
5) Data analysis: All values were expressed as average values. Statistical analysis was evaluated using Graphpad Prism 6 one-way analysis of variance and Tukey's multiple comparison test, and a p value of less than 0.05 was considered statistically significant.

C57BL/6J male mice [3] = assay: In vivo efficacy study in obese mouse model induced by HFHS diet; design: species or system C57BL/6J mice; details: for Blood glucose after 6 hours of fasting / Blood glucose 1 hour after meal: after 3 weeks of administration, HFHS; for Blood glucose after 6 hours of fasting: HFHS + Vehicle 10.5; for Blood glucose 1 hour after meal: HFHS + Vehicle 11.5
Source text: 5 week-old C57BL/6J male mice, purchased from Jiangsu GemPharmatech Co., Ltd.
1) After the animals adapted to the environment, they were fed a HFHS diet (Research Diet, HFHS, D12451) for 20 weeks, and then mice weighing more than 40 grams were selected for weight loss assay.
2) Animals whose body weight met the standard were adapted for vehicle administration, and then all mice were divided into 5 groups according to body weight for weight loss assay. The effect of the compound in reducing the body weight of animals was detected.
3) After starting the administration, the level of change in animal weight was monitored every day, and after 3 weeks of administration, the blood glucose levels of mice in each group after 6 hours of fasting and 1 hour after meal were detected, respectively;
4) Data analysis: All values were expressed as average values. Statistical analysis was evaluated using Graphpad Prism 6 one-way analysis of variance and Tukey's multiple comparison test, and a p value of less than 0.05 was considered statistically significant.

Row | Structure (SMILES) | IC50 (Human-SGLT1) [nM] | clearance ([1]; rat, plasma) [mL/min/kg] | half-life ([1]; rat, plasma) [h] | Vd ([1]; rat, plasma) [L/kg] | IC50 (Human-SGLT2) [nM] | further results
1 | CS[C@H]1O[C@@H](c2ccc(C)c(Cc3ccc(CCCC(=O)NC(C)(C)C(=O)NCCN(C)C)cc3)c2)[C@H](O)[C@@H](O)[C@@H]1O [LX2761, reference compound] | 1.1 | 37.6 | 1.9 | 1.4 | 1.1 | –
2 | CCc1ccc([C@@H]2O[C@H](SC)[C@@H](O)[C@H](O)[C@H]2O)cc1Cc1ccc(OC2CCN(C(=O)C[C@H](N)Cc3cc(F)c(F)cc3F)CC2)cc1 [WXD003] | 0.7 | 32.5 | 2.3 | 1.5 | 0.6 | OGTT blood glucose level AUC0-2 hours (SD rats): 624.2**** mmol/L × min; Glycosylated hemoglobin after 6 hours of fasting (C57BL/6J male mice [2]; after 4 weeks of administration, 3 mg/kg orally once a day, HFHS + Vehicle 4.9): 4.5*** %; Blood glucose after 6 hours of fasting (C57BL/6J male mice [2]; after 4 weeks of administration, 3 mg/kg orally once a day, HFHS + Vehicle 13.7): 10.3*** mmol/L; weight gain of animals (C57BL/6J male mice [2]; after 4 weeks of administration, FIG. 3): can effectively control the weight gain of animals; Glycosylated hemoglobin after 6 hours of fasting (C57BL/6J male mice [2]; after 7 weeks of administration, 6 mg/kg (week 4 to 7) orally once a day, HFHS + Vehicle 5.2): 4.4**** %; Blood glucose after 6 hours of fasting (C57BL/6J male mice [2]; after 7 weeks of administration, 6 mg/kg (week 4 to 7) orally once a day, HFHS + Vehicle 15.3): 9.6**** mmol/L; weight gain of animals (C57BL/6J male mice [2]; after 7 weeks of administration, FIG. 6): can effectively control the weight gain of animals; Blood glucose after 6 hours of fasting (C57BL/6J male mice [3]; 0.3 mg/kg orally once a day): 9.7 mmol/L; Blood glucose 1 hour after meal (C57BL/6J male mice [3]; 0.3 mg/kg orally once a day): 10.5 mmol/L; Blood glucose after 6 hours of fasting (C57BL/6J male mice [3]; 1 mg/kg orally once a day): 9.6 mmol/L; Blood glucose 1 hour after meal (C57BL/6J male mice [3]; 1 mg/kg orally once a day): 10.2 mmol/L; Blood glucose after 6 hours of fasting (C57BL/6J male mice [3]; 3 mg/kg orally once a day): 9.7 mmol/L; Blood glucose 1 hour after meal (C57BL/6J male mice [3]; 3 mg/kg orally once a day): 9.6* mmol/L; animal weight (C57BL/6J male mice [3]; after 3 weeks of administration, 0.3, 1, 3 mg/kg, FIG. 7 and FIG. 8): can significantly reduce animal weight in a dose-dependent manner; Oral DNAUC (AUCPO/Dose) ([1]; 10 mg/kg orally): 2 nM · h/mpk; bioavailability ([1]; rat, plasma, oral, 10 mg/kg orally vs 1 mg/kg intravenously, read-out: F % (oral bioavailability)): 0.2%; Cmax ([1]; rat, po, 10 mg/kg orally, plasma): 16.5 nM
3 | CS[C@H]1O[C@@H](c2ccc(C)c(Cc3ccc(OC4CCN(C(=O)C[C@H](N)Cc5cc(F)c(F)cc5F)CC4)cc3)c2)[C@H](O)[C@@H](O)[C@@H]1O [WXD004] | 0.8 | – | – | – | 0.8 | –

Continued, in another order:

Row | IC50 (Human-SGLT1) [nM] | clearance ([1]; rat, plasma) [mL/min/kg] | half-life ([1]; rat, plasma) [h] | Vd ([1]; rat, plasma) [L/kg] | IC50 (Human-SGLT2) [nM] | Structure (SMILES) | further results
4 | 3.5 | – | – | – | 1.4 | CCc1ccc([C@@H]2O[C@H](SC)[C@@H](O)[C@H](O)[C@H]2O)cc1Cc1ccc(OC2CCN(C(=O)C[C@@H](Cc3cc(F)c(F)cc3F)NC)CC2)cc1 [WXD005] | –
5 | 35 | – | – | – | 1.4 | CS[C@H]1O[C@@H](c2ccc(F)c(Cc3ccc(OC4CCN(C(=O)C[C@H](N)Cc5cc(F)c(F)cc5F)CC4)cc3)c2)[C@H](O)[C@@H](O)[C@@H]1O [WXD006] | –
6 | 69 | – | – | – | 5.8 | CS[C@H]1O[C@@H](c2cccc(Cc3ccc(OC4CCN(C(=O)C[C@H](N)Cc5cc(F)c(F)cc5F)CC4)cc3)c2)[C@H](O)[C@@H](O)[C@@H]1O [WXD007] | –
